Test results taken from the NIST ThermoML archive (doi:10.1016/j.tca.2011.08.002).

What was measured:
[1] = xn = mol fraction of the nth substance listed; settings: 101 kPa, Liquid, Vibrating tube method
[2] = refractive index (Na D-line) (dimensionless); xn = mol fraction of the nth substance listed; settings: 101 kPa, Liquid, Standard Abbe refractometry

C1CCC(NC2CCCCC2)CC1 [N-cyclohexylcyclohexanamine] + CCCCCO
Settings | mass density, [1] [kg/m3] | refractive index, [2]
288.15 K, x2 = 0 | 915.498 | 1.48636
288.15 K, x2 = 0.0525 | 913.936 | 1.48486
288.15 K, x2 = 0.1 | 912.365 | 1.48356
288.15 K, x2 = 0.2006 | 908.415 | 1.47999
288.15 K, x2 = 0.2999 | 903.722 | 1.47587
288.15 K, x2 = 0.3985 | 898.063 | 1.47109
288.15 K, x2 = 0.5001 | 890.925 | 1.46523
288.15 K, x2 = 0.5999 | 882.166 | 1.45834
288.15 K, x2 = 0.6992 | 871.226 | 1.45002
288.15 K, x2 = 0.7993 | 857.281 | 1.43976
288.15 K, x2 = 0.8997 | 839.76 | 1.42718
288.15 K, x2 = 0.9495 | 829.611 | 1.41998
293.15 K, x2 = 0 | 911.705 | 1.48416
293.15 K, x2 = 0.0525 | 910.13 | 1.48266
293.15 K, x2 = 0.1 | 908.547 | 1.48135
293.15 K, x2 = 0.2006 | 904.561 | 1.47776
293.15 K, x2 = 0.2999 | 899.824 | 1.47364
293.15 K, x2 = 0.3985 | 894.123 | 1.46884
293.15 K, x2 = 0.5001 | 886.952 | 1.46298
293.15 K, x2 = 0.5999 | 878.178 | 1.4561
293.15 K, x2 = 0.6992 | 867.264 | 1.4478
293.15 K, x2 = 0.7993 | 853.399 | 1.4376
293.15 K, x2 = 0.8997 | 835.998 | 1.4251
293.15 K, x2 = 0.9495 | 825.915 | 1.41796
298.15 K, x2 = 0 | 907.923 | 1.48198
298.15 K, x2 = 0.0525 | 906.333 | 1.48047
298.15 K, x2 = 0.1 | 904.733 | 1.47916
298.15 K, x2 = 0.2006 | 900.708 | 1.47554
298.15 K, x2 = 0.2999 | 895.929 | 1.47141
298.15 K, x2 = 0.3985 | 890.185 | 1.4666
298.15 K, x2 = 0.5001 | 882.98 | 1.46073
298.15 K, x2 = 0.5999 | 874.191 | 1.45386
298.15 K, x2 = 0.6992 | 863.3 | 1.44555
298.15 K, x2 = 0.7993 | 849.507 | 1.43542
298.15 K, x2 = 0.8997 | 832.22 | 1.42299
298.15 K, x2 = 0.9495 | 822.199 | 1.41591
303.15 K, x2 = 0 | 904.144 | 1.47978
303.15 K, x2 = 0.0525 | 902.538 | 1.47828
303.15 K, x2 = 0.1 | 900.921 | 1.47694
303.15 K, x2 = 0.2006 | 896.855 | 1.47333
303.15 K, x2 = 0.2999 | 892.033 | 1.46918
303.15 K, x2 = 0.3985 | 886.249 | 1.46437
303.15 K, x2 = 0.5001 | 879.007 | 1.4585
303.15 K, x2 = 0.5999 | 870.203 | 1.45162
303.15 K, x2 = 0.6992 | 859.33 | 1.44334
303.15 K, x2 = 0.7993 | 845.602 | 1.43327
303.15 K, x2 = 0.8997 | 828.423 | 1.4209
303.15 K, x2 = 0.9495 | 818.461 | 1.41383
308.15 K, x2 = 0 | 900.372 | 1.47761
308.15 K, x2 = 0.0525 | 898.746 | 1.47608
308.15 K, x2 = 0.1 | 897.111 | 1.47475
308.15 K, x2 = 0.2006 | 893.001 | 1.47113
308.15 K, x2 = 0.2999 | 888.135 | 1.46696
308.15 K, x2 = 0.3985 | 882.309 | 1.46214
308.15 K, x2 = 0.5001 | 875.031 | 1.45627
308.15 K, x2 = 0.5999 | 866.208 | 1.44937
308.15 K, x2 = 0.6992 | 855.348 | 1.44113
308.15 K, x2 = 0.7993 | 841.678 | 1.43108
308.15 K, x2 = 0.8997 | 824.599 | 1.41881
308.15 K, x2 = 0.9495 | 814.694 | 1.41175
313.15 K, x2 = 0 | 896.608 | 1.47562
313.15 K, x2 = 0.0525 | 894.957 | 1.47406
313.15 K, x2 = 0.1 | 893.301 | 1.47258
313.15 K, x2 = 0.2006 | 889.146 | 1.4689
313.15 K, x2 = 0.2999 | 884.235 | 1.46472
313.15 K, x2 = 0.3985 | 878.364 | 1.45985
313.15 K, x2 = 0.5001 | 871.049 | 1.45396
313.15 K, x2 = 0.5999 | 862.207 | 1.44702
313.15 K, x2 = 0.6992 | 851.354 | 1.43878
313.15 K, x2 = 0.7993 | 837.734 | 1.42876
313.15 K, x2 = 0.8997 | 820.749 | 1.41655
313.15 K, x2 = 0.9495 | 810.896 | 1.40963
318.15 K, x2 = 0 | 892.847 | 1.47347
318.15 K, x2 = 0.0525 | 891.168 | 1.4719
318.15 K, x2 = 0.1 | 889.492 | 1.47041
318.15 K, x2 = 0.2006 | 885.287 | 1.46671
318.15 K, x2 = 0.2999 | 880.327 | 1.46251
318.15 K, x2 = 0.3985 | 874.411 | 1.45762
318.15 K, x2 = 0.5001 | 867.056 | 1.45172
318.15 K, x2 = 0.5999 | 858.189 | 1.4448
318.15 K, x2 = 0.6992 | 847.34 | 1.43659
318.15 K, x2 = 0.7993 | 833.766 | 1.42658
318.15 K, x2 = 0.8997 | 816.864 | 1.41445
318.15 K, x2 = 0.9495 | 807.06 | 1.40753
323.15 K, x2 = 0 | 889.089 | 1.47134
323.15 K, x2 = 0.0525 | 887.381 | 1.46975
323.15 K, x2 = 0.1 | 885.679 | 1.46826
323.15 K, x2 = 0.2006 | 881.423 | 1.46457
323.15 K, x2 = 0.2999 | 876.412 | 1.46034
323.15 K, x2 = 0.3985 | 870.446 | 1.45547
323.15 K, x2 = 0.5001 | 863.048 | 1.44954
323.15 K, x2 = 0.5999 | 854.154 | 1.44263
323.15 K, x2 = 0.6992 | 843.305 | 1.43439
323.15 K, x2 = 0.7993 | 829.767 | 1.42439
323.15 K, x2 = 0.8997 | 812.943 | 1.4123
323.15 K, x2 = 0.9495 | 803.186 | 1.40539
